Assay results taken from patent publication US11319344B2, “Non-membrane disruptive P53 activating stapled peptides” (AGENCY FOR SCIENCE, TECHNOLOGY AND RESEARCH, priority 2015, dated 2022).
Read-outs that look alike come from different tables or passages of the source. *1 amine or outer side, *2 acyl side, *3 side chain or, on linkers, in order; H or OH if unused. Where a SMILES comes first, the peptide text is derived from it. Bridges are numbered along the chain shown (N, C = ends). [ ]: non-standard residue; d: D form. ξ: configuration not given here. ξαMeNle(6-ylidene) = CC(CCCC=[*:3])(N[*:1])C(=O)[*:2]

Legend:
[1] = test system: T22 cells; assay: Lactate dehydrogenase release assay, T22 cells; format: cell-based; conditions: 2 h
Procedure: (§1) The stapled YS-01/04 peptides were also screened for their ability to perturb the cell membrane wall of T22 and ARN8 cells and release cytosolic lactate dehydrogenase (LDH). An effect that is regarded as undesirable as this may indicate that the peptide is non-specifically toxic to different cell types. A short 2 hour time treatment period is used for this assay as it is assumed that perforation of the cell membrane occurs […] for cell programmed death. […] The lactate dehydrogenase leakage measured was much greater in ARN8 cells than T22 cells, showing that different cells vary in their sensitivities to the membrane disruptive properties of YS-03. […] This implies that p53 activation, which is also supported by the data for YS-04, does occur in the absence of membrane disruption and that the biological activity observed for is not a direct consequence of cellular toxicity.
(§2) T22 cells or ARN8 cells, both of which were stably transfected with a p53 responsive β-galactosidase reporter, were seeded into a 96-well plate at a cell density of 5000 cells per well. Cells were also maintained in Dulbecco's Minimal Eagle Medium (DMEM) with 10% fetal bovine serum (FBS) and penicillin/streptomycin. The cells were incubated for 24 hours and then treated with compounds/peptide for 2 hours in DMEM with or without 10% FBS. Cytosolic lactate dehydrogenase release was detected using the non-radioactive cytotoxicity Assay kit (Promega) as per manufacturer's instructions. Measurements were carried out using an Envision multiplate reader.

[2] = molecular target: N-terminal domain of Mdm2 (1-125) (Homo sapiens, UniProt Q00987); assay: Competitive fluorescence anisotropy titration (apparent Kd)
Chain of N-terminal domain of Mdm2 (1-125) (Q00987 1-125): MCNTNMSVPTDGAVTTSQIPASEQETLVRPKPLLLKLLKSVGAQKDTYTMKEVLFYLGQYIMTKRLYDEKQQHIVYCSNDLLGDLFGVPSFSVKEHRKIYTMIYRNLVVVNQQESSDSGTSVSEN
Procedure: In this assay, a N-terminally FAM labelled peptide of the sequence [sequence]
The cells expressing the Mdm2 GST fusion construct were grown in LB medium at 37° C. to an OD600 of ˜0.6 and induction was carried out with 1 mM isopropyl β-D-1-thiogalactopyranoside (IPTG) at room temperature. Cells were harvested by centrifugation and the cell pellets were resuspended in 50 mM Tris pH 8.0, 10% sucrose and then sonicated. The sonicated sample was centrifuged for 60 minutes at 17,000 g at 4° C. […] The column was then further washed by 6 volumes of wash buffer. Mdm2 were then purified from the column by cleavage with PreScission protease. 10 units of PreScission protease, in one column volume of PBS with 1 mM DTT buffer, were injected onto the column. The cleavage reaction was allowed to proceed overnight at 4° C. The cleaved protein was then eluted of the column with wash buffer. Protein fractions were analysed with SDS-PAGE and concentrated using a Centricon (3.5 kDa molecular weight cut-off (MWCO)) concentrator. The Mdm2 protein sample was then dialyzed into a buffer solution containing 20 mM Bis-Tris, pH 6.5, 0.05M NaCl with 1 mM DTT and loaded onto a monoS column pre-equilibrated in buffer A (20 mM Bis-Tris, pH 6.5, 1 mM DTT). The column was then washed in 6 column volumes of buffer A and bound protein was eluted with a linear gradient of 1M NaCl over 25 column volumes. Protein fractions were analysed with sodium dodecyl sulfate-polyacrylamide gel electrophoresis (SDS-PAGE) and concentrated using a Centricon (3.5 kDa molecular weight cut-off (MWCO)) concentrator.
Apparent dissociation constant (Kd) values were determined for a variety of molecules via competitive fluorescence anisotropy experiments. […] The competing molecules were then titrated against the complex of the FAM labelled peptide and protein. Apparent dissociation constant (Kd) values were determined by fitting the experimental data to the equations shown below:
[L]st and [L]t denote labelled ligand and total unlabelled ligand input concentrations, respectively. Kd2 is the dissociation constant of the interaction between the unlabelled ligand and the protein. In all competitive types of experiments, it is assumed that [P]t>[L]st, otherwise considerable amounts of free labelled ligand would always be present and would interfere with measurements. […] The FAM-labelled peptide was dissolved in dimethyl sulfoxide (DMSO) at 1 mM and diluted into experimental buffer. Readings were carried out with a Envision Multilabel Reader. […] All titrations were carried out in triplicate. Curve-fitting was carried out using Prism 4.0 (GraphPad). […]

[3] = test system: ARN8 cells; assay: Lactate dehydrogenase release assay, ARN8 cells; format: cell-based; conditions: 2 h
Procedure: as §1, §2

[4] = test system: p53 transcriptional activity in T22 cells; assay: T22 p53 β-galactosidase based reporter assay; format: cell-based, murine; conditions: for IC50: T22 p53 reporter assay, 18 h; for ability to induce p53 activity in T22 reporter assay: with and without serum
Procedure: The YS-01/04 peptides were screened in a murine T22-derived p53 reporter assay, either with or without fetal calf serum, to assess their ability to induce p53 transcriptional activity in intact cells (Table 1 and FIG. 3).
(§3) T22 cells, which were stably transfected with a p53 responsive β-galactosidase reporter, were seeded into 96-well plate at a cell density of 8000 cells per well. Cells were also maintained in Dulbecco's Minimal Eagle Medium (DMEM) with 10% fetal bovine serum (FBS) and penicillin/streptomycin. […] Measurements were carried out using a Safire II multiplate reader. Experiments were carried out independently twice.

[5] = test system: p53 and Mdm2 protein levels in T22 cells; assay: T22 western blot analysis of p53 and Mdm2 protein levels; format: cell-based, Murine; conditions: 25 μM and 50 μM, 18 h, with or without fetal calf serum
Source text: The YS-01/04 peptides were screened in a murine T22-derived p53 reporter assay, either with or without fetal calf serum, to assess their ability to induce p53 transcriptional activity in intact cells (Table 1 and FIG. 3). […] Considering the similar affinities that these peptides have for Mdm2, the difference in their IC50 values must reflect a change in their ability to enter the cell. This difference is observed for both sets of peptides (YS-01 and YS-02, YS-03 and YS-04, FIG. 3), which implies that the hydroxyl group of the C-terminal Y30 is responsible for the reduced efficiency of intracellular uptake. p53 and Mdm2 protein levels were then directly probed using western blot analysis. T22 cells were treated with 25 μM and 50 μM of YS-03 either with or without the presence of fetal calf serum (FIG. 4).
T22 Murine cells were seeded into 12 well plates at a cell density of 150000 cells per well and incubated overnight. Cells were also maintained in DMEM media with 10% fetal bovine serum (FBS) and penicillin/streptomycin. Cells were treated with various compounds/vehicle controls at the time points and concentrations indicated either in DMEM media with or without 10% FBS. Cells were rinsed with PBS and then harvested in 50 μl of 1×NuPAGE LDS sample buffer (NP0008). […] Protein concentrations were measured by BCA assay. […]

[6] = Circular dichroism spectroscopy (helicity in solution); format: physicochemical; conditions: peptide unbound in solution
[7] = test system: p53 transcriptional activity in ARN8 cells; assay: ARN8 β-galactosidase based p53 reporter assay; format: cell-based, Human; conditions: serum free, 18 h
Procedure: ARN8 cells contain the same β-galactosidase gene under the control of a p53 promoter that is stably transfected into T22 cells. […] The YS-07 and YS-09 titrations were again repeated and the lactate dehydrogenase leakage from ARN8 cells measured instead (FIGS. 8c and 8d).
as §3, with “ARN8” for “T22”

[8] = 50/25/12.5 μM, absence or presence of serum
[9] = absence of serum, read-out: T22 IC50 (0% μM)
[10] = presence of 10% fetal calf serum, read-out: T22 Ic50 (10% μM)

Kd weaker than the i,i+4 analogue peptides (YS-01 and YS-02) ([2]; ratio to YS-01/YS-02 Kd)	Compound	cytosolic lactate dehydrogenase (LDH) release [1, 8]	Kd stronger in comparison to sMTIDE-02 ([2]; ratio to sMTIDE-02 Kd)	cytosolic lactate dehydrogenase (LDH) release [3, 8]	IC50 [4, 9] [µM]	IC50 [4, 10] [µM]	ability to induce p53 activity in T22 reporter assay [4]	p53 and Mdm2 protein levels (western blot) [5]	helicity in solution (CD spectra) [6]	p53 activation (β-galactosidase activity) in ARN8 cells [7]	cytosolic lactate dehydrogenase (LDH) release ([1]; serum free)	cytosolic lactate dehydrogenase (LDH) release ([3]; serum free)
–	CC(=O)N[C@H](C(=O)N[C@@H](CO)C(=O)N[C@@H](Cc1ccccc1)C(=O)NC1(C)CCCC=CCCCC(C)(C(=O)N[C@@H](CC(C)C)C(=O)N[C@@H](CC(C)C)C(=O)N2CCC[C@H]2C(=O)N[C@@H](CCC(=O)O)C(=O)N[C@@H](CC(N)=O)C(=O)N[C@@H](Cc2ccc(O)cc2)C(N)=O)NC(=O)[C@H](Cc2c[nH]c3ccccc23)NC(=O)[C@H](Cc2ccc(O)cc2)NC(=O)[C@H](CCC(=O)O)NC1=O)[C@@H](C)O (stereo partly drawn) [YS-02, Ac-^17TSFX5EYWX5LLPENY^30-NH2] (Ac-TSF[ξαMeNle(6-ylidene)]EYW[ξαMeNle(6-ylidene)]LLPENY-NH2; staple 4-8)	negligible lactate dehydrogenase release	approximately 3 fold	negligible lactate dehydrogenase release	–	–	–	–	–	–	–	–
approximately 2 fold	CC(=O)N[C@H](C(=O)N[C@@H](CO)C(=O)N[C@@H](Cc1ccccc1)C(=O)NC1(C)CCCCCCC=CCCCC(C)(C(=O)N[C@@H](CCC(=O)O)C(=O)N[C@@H](CC(N)=O)C(=O)N[C@@H](Cc2ccccc2)C(N)=O)NC(=O)[C@H](CC(C)C)NC(=O)[C@H](CC(C)C)NC(=O)[C@H](C)NC(=O)[C@H](Cc2c[nH]c3ccccc23)NC(=O)[C@H](Cc2ccc(O)cc2)NC(=O)[C@H](CCC(=O)O)NC1=O)[C@@H](C)O (stereo partly drawn) [YS-03, Ac-^17TSFX8EYWALLS5ENF^30-NH2]	–	–	–	4.57	54.7	greater potency in the T22 assay than YS-01 and YS-02	induction of p53 and Mdm2 protein levels	significantly more helical in character in solution than YS-01 and YS-02	–	–	–
–	CC(=O)N[C@H](C(=O)N[C@@H](CO)C(=O)N[C@@H](Cc1ccccc1)C(=O)NC1(C)CCCC=CCCCC(C)(C(=O)N[C@@H](CC(C)C)C(=O)N[C@@H](CC(C)C)C(=O)N[C@@H](CO)C(=O)N[C@@H](CCC(=O)O)C(=O)N[C@@H](CC(N)=O)C(=O)N[C@@H](Cc2ccccc2)C(N)=O)NC(=O)[C@H](Cc2c[nH]c3ccccc23)NC(=O)[C@H](Cc2ccc(O)cc2)NC(=O)[C@H](CCC(=O)O)NC1=O)[C@@H](C)O (stereo partly drawn) [YS-05, Ac-^17TSFX5EYWX5LLSENF^30-NH2] (Ac-TSF[ξαMeNle(6-ylidene)]EYW[ξαMeNle(6-ylidene)]LLSENF-NH2; staple 4-8)	negligible activity	–	negligible activity	–	–	improvement of both peptides to activate p53	–	significantly more helical structure	–	–	–
–	CC(=O)N[C@H](C(=O)N[C@@H](CO)C(=O)N[C@@H](Cc1ccccc1)C(=O)N[C@]1(C)CCCCCCC=CCCC[C@@](C)(C(N)=O)NC(=O)[C@H](CC(C)C)NC(=O)[C@H](CC(C)C)NC(=O)[C@H](C)NC(=O)[C@H](Cc2c[nH]c3ccccc23)NC(=O)[C@H](Cc2ccc(O)cc2)NC(=O)[C@H](CCC(=O)O)NC1=O)[C@@H](C)O [sMTide-02, Ac-TSFX8EYWALLS5-NH2, reference compound]	–	–	–	2.75	17.9	–	–	–	poorly induces p53 activity	significant amounts of lactate dehydrogenase leakage	large amounts of lactate dehydrogenase leakage
